What was measured:
[1] = test system: CYP3A; assay: CYP3A inhibition assay in mouse liver microsomes; assay type: biochemical; conditions: MLMs
[2] = test system: CYP3A4; assay: Liver organ imaging in the presence of CYP3A4 inhibitor; parameters: species or system mice; conditions: male, C57BL/6J, mouse, isolated liver tissue, probe NCN (50 µM); read-out: residual activity of hepatic CYP3A4
Protocol: dose group (CCl4-L, 0.15%), and CCl4 high dose group (CCl4-H, 0.3%). CCl4 was dissolved in vegetable oil and administered via intraperitoneal injection. After that, mice were fasted and allowed to drink water freely. After 18 h, blood samples were collected to determine the level of ALT and AST, while liver tissues were collected and washed with PBS. Then, the liver tissues were soaked 30 min in a solution containing NCN (50 μM, 5 mL) for fluorescent imaging. After organ imaging, the tissues were ground, and centrifuged, and the supernatant was diluted with 10-fold acetonitrile to precipitate the protein. After centrifugation again, the supernatant was determined to quantify the level of HNCN.
1.15. Bio-safety assessment of NCN in healthy mice
Sixteen C57BL/6J mice (8 males and 8 females, 6 weeks) were randomly assigned into two groups (4 males and 4 females). All mice were subjected to adaptive feeding for 7 d before the experiment. […] Mice organs were weighed and the organ index was calculated, and hematoxylin and eosin (H&E) stains were provided by Shanghai Ruibaohe Biotechnology Co., Ltd. […]
After that, the liver tissues were removed, and fluorescence imaging of the liver was performed using VISQUE Invivo Smart-LF. […]
quantify the levels of HNCN. […]
fluorescence intensity of the control (solvent only)) × 100%. […]

CC(=O)N1CCN(c2ccc(OCC3COC(Cn4ccnc4)(c4ccc(Cl)cc4Cl)O3)cc2)CC1 (centres unmarked) [KCZ, ketoconazole]
activity at 1 h, 1 µM [2]: ~20%
